Data taken from patent US12630493B2, “Anti-inflammatory compounds” (priority 2018, dated 2026).
Entries after “also recorded” stand apart in the source; their conditions may differ.

How the values were obtained:
TNF-[…] = experiment: kavain analog screening assay, TNF inhibition in BMM infected with P. gingivalis; format: cell-based, murine
Experimental: (§1) To identify compounds with strong anti-inflammatory properties, kavain analogs were tested in a screening assay based on TNF-[…] inhibition in BMM infected with P. gingivalis (FIG. 1B). This screen identified Kava-205Cl (5,5-dimethyl-3-oxocyclohex-1-en-1-yl 4-chlorobenzoate) and its methylated analog Kava-205Me (5,5-dimethyl-3-oxocyclohex-1-en-1-yl 4-methylbenzoate) (FIG. 1B) as effective inhibitors of TNF-[…] secretion (z=−0.99 and z=−1.07 respectively).

TNF-α [1] = experiment: TNF-α secretion, dose-response in THP-1 infected with P. gingivalis; format: cell-based, human
Experimental: (§2) See Amar, Salomon et al., Identification of a Kavain Analog with Efficient Anti-inflammatory Effects, [Currently unpublished], 2019. (Incorporated by reference in its entirety, herein). Specifically, in an in vitro assay of anti-inflammatory effects, murine macrophages (BMM) and THP-1 cells were infected with P. gingivalis (MOI=20:1) and a panel of cytokines were measured.
as §1

[2] = tested on: infective arthritis (collagen-antibody + P. gingivalis); experiment: infective arthritis murine model, P. gingivalis and AB peritoneal injection (Kava-205Me); format: in vivo, mice
Experimental: as §2
To evaluate the systemic effect of Kava-205Me, an infective arthritis was induced in mice by the combined insults of P. gingivalis and AB peritoneal injection. After 10 days, significant paw swelling was observed, confirming the establishment of joint inflammation and a destructive process (FIG. 5). […] This anti-inflammatory effect was confirmed histologically (FIG. 5C).

ACP5 = ACP5 gene expression in BMM infected with P. gingivalis; format: cell-based, murine
Experimental: (§3) P. gingivalis is able to induce sustained recruitment of immune cells such a neutrophils and T-lymphocytes, whose presence is associated with excessive inflammation and tissue destruction at infectious sites. To evaluate the effect of Kava-205Me on the secretion of chemokines and cytokines from BMM exposed to P. gingivalis, a multiplex analysis was performed that compared P. gingivalis infected cells with and without treatment with Kava-205Me. […] Moreover, the gene expression of ACP5, an osteoclast specific gene, was evaluated in BMM infected with P. gingivalis with or without Kava-205Me treatment.

TNF-α [3] = experiment: TNF-α secretion, dose-response in BMM infected with P. gingivalis; format: cell-based, murine
Experimental: as §2, §1

[4] = tested on: IL-12, IFN-γ, MIP-1β, RANTES, IL-10, G-CSF and eotaxin; experiment: multiplex analysis of chemokines and cytokines from BMM exposed to P. gingivalis; format: cell-based, murine
Experimental: as §2, §3

[5] = tested on: P. gingivalis-induced calvarial destruction; experiment: acute model of P. gingivalis-induced calvarial destruction; format: in vivo
Experimental: as §2
In an acute model of P. gingivalis infection, Kava-205Me was administered to evaluate its anti-inflammatory and pro-healing properties in vivo. In this calvarial model, injection of P. gingivalis induced formation of a cutaneous abscess characterized by dermal inflammation and bone destruction (FIG. 4).

[6] = tested on: P. gingivalis+ type II collagen antibody induced periodontitis; details: P. gingivalis induced PD in a collagen antibody primed mouse model; cited from earlier work
[7] = tested on: infective arthritis (P. gingivalis + ArthritoMab antibody cocktail); experiment: infective arthritis murine model triggered by P. gingivalis and primed with collagen antibody cocktail (Kava-241); format: in vivo, DBA1/BO male mice; details: CIA cocktail, treated concomitantly
Text: Kava-241 (I-BC-241) is a compound derived from kavain and has been synthesized as described previously. In this example, we evaluated the systemic and articular effects Kava-241 in an infective arthritis murine model triggered by P. gingivalis bacterial inoculation and primed with collagen antibody cocktail (CIA) to induce joint inflammation and tissular destruction. Arthritis was induced in twenty-eight six-week-old, pathogen-free DBA1/BO male mice by two consecutive injections of ArthritoMab (AB) Antibody cocktail (CIA-MAB-2C, MD Bioproducts, Oakdale, MN, USA), the first injection of 7 mg at baseline, followed by a second injection of 4 mg at day 5. For P. gingivalis injected groups, 3 intraperitoneal injections of 5.10^8 bacteria/100 μl were performed at days 2, 8 and 11. Mice were sacrificed after 17 days. Clinical inflammation score and radiological analysis of the paws were performed continuously while histological assessment was obtained at sacrifice. Forepaws were evaluated to score arthritis using a visual qualitative assessment scoring as follows: 0) no paw swelling, 1) mild swelling, 2) moderate swelling, 3) severe swelling (22). Inflammation was also evaluated with X-rays examination.

[8] = tested on: P. gingivalis+ type II collagen antibody induced periodontitis; experiment: collagen antibody primed oral gavage model of periodontitis; format: in vivo, mice
Experimental: The effect of Kava-241 on periodontal destruction in a collagen antibody primed oral gavage model of periodontitis was evaluated. In this example, experimental periodontitis was induced by oral gavage of P. gingivalis+ type II collagen antibody (AB) in mice during 15 days. Mice were treated with Kava-241 concomitantly or prior to P. gingivalis gavage and compared to untreated mice. Comprehensive histomorphometric analyses were performed. […] The Kava-241 effect was associated with a reduction in inflammatory cell counts within soft tissues and an increase in fibroblasts.

TNF-α [9] = experiment: serum TNF-α in mice injected with P. gingivalis-lipopolysaccharide; format: in vivo; details: mice injected with TLR 2/4 ligand P. gingivalis-LPS
[10] = tested on: TLR-2/4, MAPKs related signal elements, LITAF; experiment: signalling in bone-marrow derived macrophages infected with P. gingivalis; format: cell-based, murine; details: BMM infected with P. gingivalis
TNF-α [11] = details: Escherichia coli LPS-stimulated RAW cells; cited from earlier work
[12] = collagen-antibody (ArthriomAb)+P. gingivalis
[13] = P. gingivalis+ AG group, p<0.05

SMILES: CC1(C)CC(=O)C=C(OC(=O)c2ccc(Cl)cc2)C1 [Kava-205Cl, 5,5-dimethyl-3-oxocyclohex-1-en-1-yl 4-chlorobenzoate]
- TNF-[…] secretion, z (TNF-[…]): −0.99

SMILES: Cc1ccc(C(=O)OC2=CC(=O)CC(C)(C)C2)cc1 [Kava-205Me, 5,5-dimethyl-3-oxocyclohex-1-en-1-yl 4-methylbenzoate]
- TNF-[…] secretion, z (TNF-[…]): −1.07
- TNF-α secretion induced by P. gingivalis (TNF-α [1]; THP-1 cells, MOI=20:1, 10 to 200 μg/ml): significantly and dose-dependently reduced
- TNF-[…] secretion (TNF-α [1]; THP-1 infected with P. gingivalis, lowest tested dose 10 µg/ml): reduced significantly
- number of TRAP positive multinucleated cells in contact with bone (osteoclastic activity of the infiltrate) ([2]; P. gingivalis-exposed animals): reduction
- inflammatory infiltrate in paw tissue sections ([2]; animals exposed to P. gingivalis, histology): significant reduction
- joint destruction [2, 12]: reduce efficiently
- paw swelling [2, 12]: reduce efficiently
- P. gingivalis-induced paw swelling ([2]; systemic administration, 32 day time point): significantly decreased
- ACP5 gene expression (ACP5): reduced
- TNF-[…] secretion (TNF-α [3]; BMM infected with P. gingivalis, lowest tested dose 10 µg/ml): reduced significantly
- TNF-α secretion induced by P. gingivalis (TNF-α [3]; BMM, MOI=20:1, 10 to 200 μg/ml): significantly and dose-dependently reduced
- concentrations of chemokines and cytokines (IL-12, IFN-γ, MIP-1β, RANTES, IL-10, G-CSF and eotaxin) ([4]; BMM exposed to P. gingivalis, multiplex analysis): significantly reduced
- secretion of IL-12, eotaxin, RANTES, IL-10 and interferon-γ ([4]; BMM infected with P. gingivalis, p<0.05): reduced
- osteoclastic activity [5]: reduced; also recorded: trend of reduction
- rate of healing ([5]; P. gingivalis injection): significantly improved; also recorded: significantly increased
- soft tissue inflammation ([5]; histological level): reduced significantly

SMILES: CC1(C)CC(=O)C=C(OC(=O)c2ccccc2)C1 [Kava-241, 5,5-dimethyl-3-oxocyclohex-1-en-1-yl benzoate]
- inflammation including alveolar bone loss [6]: prevented
- clinical inflammatory score [7]: reduced
- number of inflammatory cells within joint [7]: decreased
- number of osteoclasts within joint [7]: decreased
- reduced alveolar bone loss [8, 13]: 36%
- reduced epithelial down-growth [8, 13]: 72%
- inflammatory cell counts within soft tissues ([8]; periodontitis model): reduction
- fibroblasts ([8]; periodontitis model, soft tissues): increase
- TNF-α in serum (TNF-α [9]): decreased significantly
- LITAF [10]: reduced
- MAPKs related signal elements [10]: reduced
- TLR-2/4 [10]: reduced
- TNF-α secretion (TNF-α [11]): reduced
